One assay has as its target T1, FGFR1-GST (Homo sapiens, UniProt P11362).
T1 construct: GST; made in house
Description: FGFR-1 TR-FRET biochemical assay. Put shortly:
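LANCE TR-FRET with 5 nM FGFR1-GST, 0.6 uM ATP, 25 nM biotin-poly GT in HEPES pH 7.5/MgCl2, 1% DMSO; compound added before enzyme, 1 h at room temperature. 665/615 nm ratio, background without ATP; % inhibition over 10 μM–0.128 nM final for IC50.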

The test system of assay [1] is histone 3 phosphorylation in colon carcinoma (HCT116). In words: p-Histone3 assay. As to conditions: Homo sapiens, HCT-116, 24 h, HCT116, 24 hours treatment. The class given is cell-based. The procedure: Compounds were assayed for the inhibition of histone 3 phosphorylation in colon carcinoma (HCT116). Briefly, 20,000 cells/well were seeded in a 96-well black-walled, poly-d-lysine plates in RPMI+10% FBS and incubated at 37° C. in 5% CO2 overnight. The following day, the cells were treated with compounds for 24 hours at 37° C. Following compound treatment; plates were centrifuged at 1000 rpm for 2 minutes and washed twice with 100 μl of cold sterile TBS. Cells were then fixed with cold 3.7% formaldehyde in TBS (4° C. for 1 hour) and then permeabalized with 0.1% Triton-X-100 in TBS (room temperature for 30 minutes). Plates were then washed with of 0.25% BSA-TBS and blocked with BSA solution for 1 hour at room temperature while shaking. The supernatant was removed and replaced with diluted primary antibody (anti-phospho-histone 3, serine 10, Cell Signaling) at 1:250 in 0.25% BSA-TBS and incubated overnight at 4° C. The plates were washed and treated with diluted secondary antibody (anti-rabbit Eu-labeled) at 1:10000 in 0.25% BSA-TBS (room temperature for 1 hour). The antibody solution was removed from each well and washed eight times. The wash buffer was replaced with 50 μl pre-warmed enhancement solution and mixed on the orbital shaker for 10 minutes. Fluorescence was detected with a Victor V Fluorescence Detector. The data are expressed as percent inhibition: % inhibition=100−((Signal with inhibitor-background)/(Signal without inhibitor-background))×100.

T1 sequence (P11362 22-822): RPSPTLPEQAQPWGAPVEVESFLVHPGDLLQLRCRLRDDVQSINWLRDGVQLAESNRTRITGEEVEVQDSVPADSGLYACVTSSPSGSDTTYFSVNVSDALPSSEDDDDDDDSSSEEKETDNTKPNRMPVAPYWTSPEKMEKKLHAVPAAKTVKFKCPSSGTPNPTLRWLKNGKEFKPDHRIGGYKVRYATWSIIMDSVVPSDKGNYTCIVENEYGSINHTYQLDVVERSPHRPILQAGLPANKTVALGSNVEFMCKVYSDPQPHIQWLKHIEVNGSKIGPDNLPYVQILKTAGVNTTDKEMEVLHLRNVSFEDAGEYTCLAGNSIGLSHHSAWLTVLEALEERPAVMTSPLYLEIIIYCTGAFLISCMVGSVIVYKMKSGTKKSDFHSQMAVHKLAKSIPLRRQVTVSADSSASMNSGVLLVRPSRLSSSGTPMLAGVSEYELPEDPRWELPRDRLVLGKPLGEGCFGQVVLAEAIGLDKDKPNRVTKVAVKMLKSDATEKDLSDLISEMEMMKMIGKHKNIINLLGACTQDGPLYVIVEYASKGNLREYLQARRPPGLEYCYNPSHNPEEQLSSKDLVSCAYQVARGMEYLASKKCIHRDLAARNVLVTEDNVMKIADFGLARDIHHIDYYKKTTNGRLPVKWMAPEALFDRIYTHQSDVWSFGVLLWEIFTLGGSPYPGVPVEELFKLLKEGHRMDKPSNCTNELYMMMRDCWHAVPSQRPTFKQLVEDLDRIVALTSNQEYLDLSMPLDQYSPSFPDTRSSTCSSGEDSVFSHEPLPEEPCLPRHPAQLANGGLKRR

Regarding `Nc1ncnn2c(CN3CCOCC3)c(C(=O)NCC(F)(F)F)c(-c3ccc(NC(=O)Nc4cc(C(F)(F)F)ccc4F)cc3)c12` [Example 9, 4-amino-5-{4-[({[2-fluoro-5-(trifluoromethyl)-phenyl]amino}carbonyl)amino]phenyl}-7-(morpholin-4-ylmethyl)-N-(2,2,2-trifluoroethyl)pyrrolo[2,1-f][1,2,4]triazine-6-carboxamide], the IC50 on FGFR1-GST (bounds given in nM) is less than 10 nM; in assay [1] (bounds given in μM), less than 5 µM; in assay [1] (lower bound in nM), more than 0.5 µM. On to `CN1CCN(Cc2c(C(=O)NCC(F)(F)F)c(-c3ccc(NC(=O)Nc4cc(C(F)(F)F)ccc4F)cc3)c3c(N)ncnn23)CC1` [Example 10, 4-amino-5-{4-[({[2-fluoro-5-(trifluoromethyl)-phenyl]amino}carbonyl)amino]phenyl}-7-[(4-methylpiperazin-1-yl)methyl]-N-(2,2,2-trifluoroethyl)pyrrolo[2,1-f][1,2,4]triazine-6-carboxamide], for which the values for the IC50 (against FGFR1-GST (bounds given in nM); in assay [1] (bounds given in μM); in assay [1] (lower bound in nM)) were less than 10 nM, less than 5 µM and more than 0.5 µM, respectively.

For the molecule `COCc1c(-c2ccc(NC(=O)Nc3cc(C(F)(F)F)ccc3F)cc2)c2c(N)ncnn2c1CN1CCN(S(C)(=O)=O)CC1` [Example 20, N-[4-(4-amino-6-(methoxymethyl)-7-{[4-(methylsulfonyl)piperazin-1-yl]methyl}pyrrolo[2,1-f][1,2,4]triazin-5-yl)phenyl]-N′-[2-fluoro-5-(trifluoromethyl)phenyl]urea], the IC50 at FGFR1-GST (bounds given in nM) was 10 to 100 nM; in assay [1] (bounds given in μM), 5 to 10 µM. In the case of `CN(C)Cc1c(C(=O)NCC(F)(F)F)c(-c2ccc(NC(=O)Nc3cccc(C(F)(F)F)n3)cc2)c2c(N)ncnn12` [Example 53, 4-amino-7-[(dimethylamino)methyl]-N-(2,2,2-trifluoroethyl)-5-{-4-[({[6-(trifluoromethyl)-pyridin-2-yl]amino}carbonyl)-amino]phenyl}pyrrolo[2,1-f][1,2,4]triazine-6-carboxamide], the figures for the IC50 in assay [1] (bounds given in μM) and in assay [1] (lower bound in nM) were less than 5 µM and more than 0.5 µM, respectively. At FGFR1-GST (bounds given in nM), `COCc1c(-c2ccc(NC(=O)Nc3cccc(C(C)(C)C)c3)c(F)c2)c2c(N)ncnn2c1CN1CCOCC1` [Example 138, N-{4-[4-amino-6-(methoxymethyl)-7-(morpholin-4-ylmethyl)-pyrrolo[2,1-f][1,2,4]triazin-5-yl]-2-fluorophenyl}-N′-(3-tert-butylphenyl)urea] registered an IC50 of less than 10 nM. As for `COCc1c(-c2ccc(NC(=O)Nc3cc(C)ccc3F)c(F)c2)c2c(N)ncnn2c1CN1CCCOCC1` [Example 140, N-{4-[4-amino-6-(methoxymethyl)-7-(1,4-oxazepan-4-ylmethyl)-pyrrolo[2,1-f][1,2,4]triazin-5-yl]-2-fluorophenyl}-N′-(2-fluoro-5-methylphenyl)urea], at FGFR1-GST (bounds given in nM), the concentration for half-maximal inhibition (IC50) was 10 to 100 nM. The same measure, in the same setting: then `COCc1c(-c2ccc(NC(=O)Nc3cc(C(F)(F)F)ccc3Cl)c(F)c2)c2c(N)ncnn2c1CN1CCOCC1` [Example 142, N-{4-[4-amino-6-(methoxymethyl)-7-(morpholin-4-ylmethyl)-pyrrolo[2,1-f][1,2,4]triazin-5-yl]-2-fluorophenyl}-N′-[2-chloro-5-(trifluoromethyl)phenyl]urea], with 10 to 100 nM; and `COCc1c(-c2ccc(NC(=O)Nc3cc(C(F)(F)F)ccn3)c(C)c2)c2c(N)ncnn2c1CN1CCOCC1` [Example 145, N-4-[4-amino-6-(methoxymethyl)-7-(morpholin-4-ylmethyl)pyrrolo[2,1-f][1,2,4]triazin-5-yl]-2-methylphenyl-N′-[4-(trifluoromethyl)pyridin-2-yl]urea], with less than 10 nM. The same measure, in the same setting: then `CCc1c(-c2ccc(NC(=O)Nc3cc(C(F)(F)F)ccn3)cc2)c2c(N)ncnn2c1CN1CCOCC1` [Example 148, N-{4-[4-amino-6-ethyl-7-(morpholin-4-ylmethyl)pyrrolo[2,1-f][1,2,4]triazin-5-yl]phenyl}-N′-[4-(trifluoromethyl)pyridin-2-yl]urea], with 10 to 100 nM. `COCc1c(-c2ccc(NC(=O)Nc3cc(C(F)(F)F)ccc3F)c(F)c2)c2c(N)ncnn2c1C1CCNCC1` [Example 149, 1-{4-[4-amino-6-(methoxymethyl)-7-piperidin-4-ylpyrrolo[2,1-f][1,2,4]triazin-5-yl]-2-fluorophenyl}-3-[2-fluoro-5-(trifluoro-methyl)phenyl]urea] had an IC50 at FGFR1-GST (bounds given in nM) of 10 to 100 nM. For the molecule `COCc1c(-c2ccc(NC(=O)Nc3cc(C(F)(F)F)ccc3F)c(F)c2)c2c(N)ncnn2c1C1CCN(C(=O)N(C)C)CC1` [Example 150, 4-{4-amino-5-[3-fluoro-4-({[2-fluoro-5-(trifluoromethyl)-phenyl]carbamoyl}amino)phenyl]-6-(methoxymethyl)-pyrrolo[2,1f][1,2,4]-triazin-7-yl}-N,N-dimethylpiperidine-1-carboxamide], the IC50 was more than 100 nM on FGFR1-GST (bounds given in nM) and less than 1000 nM at FGFR1-GST (upper bound in μM).

Turning to `Nc1ncnn2c(CN3CCOCC3)c(Cl)c(-c3ccc(NC(=O)Nc4cc(C(F)(F)F)ccc4F)c(F)c3)c12` [Example 152, N-{4-[4-amino-6-chloro-7-(morpholin-4-ylmethyl)pyrrolo[2,1-f][1,2,4]triazin-5-yl]-2-fluorophenyl}-N′-[2-fluoro-5-(trifluoromethyl)-phenyl]urea], the IC50 against FGFR1-GST (bounds given in nM) was 10 to 100 nM.

Turning to `Nc1ncnn2c(CN3CCOCC3)c(Cl)c(-c3ccc(NC(=O)Nc4cc(C(F)(F)F)ccc4F)cc3)c12` [Example 154, N-{4-[4-amino-6-chloro-7-(morpholin-4-ylmethyl)pyrrolo[2,1-f][1,2,4]triazin-5-yl]phenyl}-N′-[2-fluoro-5-(trifluoromethyl)phenyl]urea], at FGFR1-GST (bounds given in nM), the IC50 is less than 10 nM. As for `Nc1ncnn2c(CN3CCOCC3)c(Cl)c(-c3cc(F)c(NC(=O)Nc4cc(C(F)(F)F)ccc4F)cc3F)c12` [Example 156, N-{4-[4-amino-6-chloro-7-(morpholin-4-ylmethyl)pyrrolo[2,1-f][1,2,4]triazin-5-yl]-2,5-difluorophenyl}-N′-[2-fluoro-5-(trifluoromethyl)-phenyl]urea], the IC50 on FGFR1-GST (bounds given in nM) was more than 100 nM; against FGFR1-GST (upper bound in μM) it was less than 1000 nM. `Nc1ncnn2c(CN3CCOCC3)c(Cl)c(-c3ccc(NC(=O)Nc4cc(C(F)(F)F)ccn4)c(F)c3)c12` [Example 158, N-{4-[4-amino-6-chloro-7-(morpholin-4-ylmethyl)pyrrolo[2,1-f][1,2,4]triazin-5-yl]-2-fluorophenyl}-N′-[4-(trifluoromethyl)pyridin-2-yl]urea] gave an IC50 against FGFR1-GST (bounds given in nM) of less than 10 nM.

`Nc1ncnn2c(CN3CCOCC3)c(Cl)c(-c3ccc(NC(=O)Nc4cc(C(F)(F)F)ccc4Cl)c(F)c3)c12` [Example 159, N-{4-[4-amino-6-chloro-7-(morpholin-4-ylmethyl)pyrrolo[2,1-f][1,2,4]triazin-5-yl]-2-fluorophenyl}-N′-[2-chloro-5-(trifluoromethyl)-phenyl]urea] displayed an IC50 on FGFR1-GST (bounds given in nM) of 10 to 100 nM. The same measure, in the same setting: then `Nc1ncnn2c(CN3CCOCC3)c(Cl)c(-c3ccc(NC(=O)Nc4cccc(C(F)(F)F)c4)c(Cl)c3)c12` [Example 160, N-{4-[4-amino-6-chloro-7-(morpholin-4-ylmethyl)pyrrolo[2,1-f][1,2,4]triazin-5-yl]-2-chlorophenyl}-N′-[3-(trifluoromethyl)phenyl]urea], with 10 to 100 nM; and `Cc1ccc(F)c(NC(=O)Nc2ccc(-c3c(Cl)c(CN4CCOCC4)n4ncnc(N)c34)cc2F)c1` [Example 161, N-{4-[4-amino-6-chloro-7-(morpholin-4-ylmethyl)pyrrolo[2,1-f][1,2,4]triazin-5-yl]-2-fluorophenyl}-N′-(2-fluoro-5-methylphenyl)urea], with less than 10 nM.

The values are drawn from patent publication US8829185B2 (Bayer HealthCare LLC, priority 2005, dated 2014).
